Experimental data published in paper PMC12114571, “3-(3-Azabicyclo[2, 2, 1]heptan-2-yl)-1,2,4-oxadiazoles as Novel Potent DPP-4 Inhibitors to Treat T2DM” (Pharmaceuticals, 2025).
Where two headings read alike, the source gives them in different places.

Columns and labels:
[1] = biological target: T1, recombinant DPP-4 enzyme D4943 (Homo sapiens, UniProt P27487); assay: DPP-4 enzyme inhibitory assay, chromogenic substrate Gly-Pro-pNA, absorbance at 405 nm; format: biochemical; details: 37 °C for 30 min, pH = 7.6, dilution range 10^−4 to 10^−11 M
T1 construct: purchased Sigma-Aldrich D4943
T1 sequence (P27487 whole entry): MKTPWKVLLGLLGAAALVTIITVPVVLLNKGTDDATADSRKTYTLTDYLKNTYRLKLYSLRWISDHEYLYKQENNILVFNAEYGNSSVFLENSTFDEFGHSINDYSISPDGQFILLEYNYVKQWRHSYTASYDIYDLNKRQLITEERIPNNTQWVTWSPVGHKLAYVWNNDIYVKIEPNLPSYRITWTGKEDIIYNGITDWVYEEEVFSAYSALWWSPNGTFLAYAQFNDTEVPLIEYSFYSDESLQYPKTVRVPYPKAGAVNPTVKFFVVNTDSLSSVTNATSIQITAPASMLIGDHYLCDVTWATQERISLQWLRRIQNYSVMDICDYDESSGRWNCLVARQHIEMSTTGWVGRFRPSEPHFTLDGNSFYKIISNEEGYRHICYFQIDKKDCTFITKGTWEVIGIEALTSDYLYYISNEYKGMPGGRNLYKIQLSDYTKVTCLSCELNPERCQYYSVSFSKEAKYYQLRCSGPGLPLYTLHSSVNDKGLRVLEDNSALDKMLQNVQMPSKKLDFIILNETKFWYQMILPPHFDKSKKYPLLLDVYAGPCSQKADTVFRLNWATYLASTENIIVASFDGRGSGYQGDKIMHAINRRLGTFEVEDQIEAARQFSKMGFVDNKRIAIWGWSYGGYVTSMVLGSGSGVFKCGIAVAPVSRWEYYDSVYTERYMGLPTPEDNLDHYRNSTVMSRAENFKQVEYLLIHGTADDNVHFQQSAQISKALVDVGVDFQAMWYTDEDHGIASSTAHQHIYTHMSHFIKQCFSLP
Method: (§1) The assessment of DPP-4 enzyme inhibitory activities for the synthesised compounds was performed using protocols similar to those previously described in the literature. […] Following a brief incubation period (37 °C for 30 min), absorbance at 405 nm was measured. Initial optimisation of the procedure utilised reference compounds. […] Correspondingly, the analysis of inhibition activity for related enzymes was executed using DPP-8 and DPP-9 inhibition assays, where the compounds were studied in the dilution range 10^−2 to 10^−8 M (Table 2).
(§2) For the in vitro assays, we used the substrate Gly-Pro-p-nitroanilide (H-Gly-Pro pNA HCl, G0513) and recombinant dipeptidyl peptidase-4 enzyme (D4943), which were purchased from Sigma-Aldrich (St. Louis, MO, USA). Samples containing DPP-4 (0.0015 U/well) and varying concentrations of test compounds were incubated with the chromogenic peptide substrate, G0513 (90 µg/well), in a total volume of 100 µL of buffer system (50 mM Tris-HCl, 50 mM NaCl, 0.01% Triton, pH = 7.6). The mixtures were incubated at 37 ◦C for 30 min, and the absorbance at 405 nm was measured using the microplate reader ChemWell (Awareness Technology Inc., Palm City, FL, USA). The DPP-4 inhibitory activities for each test compound were calculated. IC50 values were obtained using GraphPad Prism 8 software. The inhibition activity analysis of the related enzymes was performed using the “Fluorogenic DPP-8 Assay Kit” and “Fluorogenic DPP-9 Assay Kit”, both purchased from BPS Bioscience (San Diego, CA, USA). The dilution range for every compound was 10^−2–10^−8 M.

DPP-9 [2] = biological target: T2, DPP-9 (Homo sapiens, UniProt Q86TI2); assay: Fluorogenic DPP-9 Assay Kit inhibition assay; format: biochemical; details: for IC50: dilution range 10^−2 to 10^−8 M
T2 construct: purchased BPS Bioscience
T2 sequence (Q86TI2 whole entry): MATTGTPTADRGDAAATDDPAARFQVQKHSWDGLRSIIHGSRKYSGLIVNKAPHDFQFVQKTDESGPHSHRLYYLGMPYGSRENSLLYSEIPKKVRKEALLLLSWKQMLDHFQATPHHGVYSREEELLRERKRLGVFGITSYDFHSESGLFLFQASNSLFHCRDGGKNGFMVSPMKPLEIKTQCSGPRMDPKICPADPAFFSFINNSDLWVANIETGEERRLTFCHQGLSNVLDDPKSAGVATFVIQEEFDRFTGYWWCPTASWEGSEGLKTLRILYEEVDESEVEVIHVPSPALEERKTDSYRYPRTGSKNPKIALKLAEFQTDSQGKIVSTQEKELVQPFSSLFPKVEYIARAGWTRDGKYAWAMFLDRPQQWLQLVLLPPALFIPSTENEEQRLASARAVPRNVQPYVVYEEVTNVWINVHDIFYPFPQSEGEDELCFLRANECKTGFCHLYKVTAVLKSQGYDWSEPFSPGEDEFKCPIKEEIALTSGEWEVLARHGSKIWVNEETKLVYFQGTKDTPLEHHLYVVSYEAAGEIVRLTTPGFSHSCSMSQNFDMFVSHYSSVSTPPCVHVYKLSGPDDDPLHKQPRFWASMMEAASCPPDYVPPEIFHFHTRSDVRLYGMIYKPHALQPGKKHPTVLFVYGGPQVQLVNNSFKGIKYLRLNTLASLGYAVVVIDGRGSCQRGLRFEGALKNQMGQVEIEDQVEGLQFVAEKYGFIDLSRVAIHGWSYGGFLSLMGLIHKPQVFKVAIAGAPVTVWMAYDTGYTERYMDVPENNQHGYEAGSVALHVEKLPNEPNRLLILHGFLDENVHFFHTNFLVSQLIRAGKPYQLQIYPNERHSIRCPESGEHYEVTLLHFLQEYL
Method: as §1, §2

DPP-8 [3] = biological target: T3, DPP-8 (Homo sapiens, UniProt Q6V1X1); assay: Fluorogenic DPP-8 Assay Kit inhibition assay; format: biochemical; details: for IC50: dilution range 10^−2 to 10^−8 M
T3 construct: purchased BPS Bioscience
T3 sequence (Q6V1X1 whole entry): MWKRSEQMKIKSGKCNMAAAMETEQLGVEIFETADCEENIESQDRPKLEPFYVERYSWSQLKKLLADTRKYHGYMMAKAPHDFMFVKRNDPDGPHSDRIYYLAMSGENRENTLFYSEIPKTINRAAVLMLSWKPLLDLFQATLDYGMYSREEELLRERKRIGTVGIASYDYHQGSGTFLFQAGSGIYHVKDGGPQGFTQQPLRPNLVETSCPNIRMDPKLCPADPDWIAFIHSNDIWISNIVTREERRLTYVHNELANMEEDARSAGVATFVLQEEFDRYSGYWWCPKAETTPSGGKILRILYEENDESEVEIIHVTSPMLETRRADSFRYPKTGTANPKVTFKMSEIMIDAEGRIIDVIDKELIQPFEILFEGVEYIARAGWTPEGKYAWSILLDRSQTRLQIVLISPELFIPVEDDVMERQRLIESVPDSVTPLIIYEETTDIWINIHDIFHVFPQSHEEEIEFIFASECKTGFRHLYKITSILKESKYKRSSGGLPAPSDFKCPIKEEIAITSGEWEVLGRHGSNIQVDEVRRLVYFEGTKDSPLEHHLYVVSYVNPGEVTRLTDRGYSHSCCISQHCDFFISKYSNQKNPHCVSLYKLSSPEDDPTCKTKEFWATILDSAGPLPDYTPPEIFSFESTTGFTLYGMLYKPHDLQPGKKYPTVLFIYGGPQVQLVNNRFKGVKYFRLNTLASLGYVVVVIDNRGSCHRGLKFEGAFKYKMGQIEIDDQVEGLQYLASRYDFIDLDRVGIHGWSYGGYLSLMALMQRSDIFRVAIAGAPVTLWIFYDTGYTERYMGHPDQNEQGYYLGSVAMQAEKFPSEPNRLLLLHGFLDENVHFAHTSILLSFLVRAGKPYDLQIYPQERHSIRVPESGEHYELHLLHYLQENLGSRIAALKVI
Method: as §1, §2

DPP-8 [4] = biological target: T3, DPP-8; parameters: method as in PMID 35337071; details: neogliptin reference value; cited from earlier work
[5] = biological target: T1, recombinant DPP-4 enzyme D4943; parameters: method as in PMID 35337071; details: neogliptin reference value; cited from earlier work
DPP-9 [6] = biological target: T2, DPP-9; parameters: method as in PMID 35337071; details: neogliptin reference value; cited from earlier work
[7] = concentration range 10^−3–10^−6 M

IC50 [1] | IC50 (DPP-9 [2]) | IC50 (DPP-8 [3]) | SMILES | DPP-9 inhibitory activity (in words) (DPP-9 [2]; [7]) | DPP-8 inhibitory activity (in words) (DPP-8 [3]; [7]) | IC50 (DPP-8 [4]) | IC50 [5] | IC50 (DPP-9 [6])
> 1000 nM | > 1000 nM | > 1000 nM | N[C@@H](CC(=O)N1C2CCC(C2)[C@@H]1c1noc(-c2ccccc2)n1)Cc1cc(F)c(F)cc1F (stereo partly drawn) [3b, (3R)-3-Amino-1-[(3R)-3-(5-phenyl-1,2,4-oxadiazol-3-yl)-2-azabicyclo[2.2.1]heptan-2-yl]-4-(2,4,5-trifluorophenyl)butan-1-one] |  |  |  |  | 
21.6 nM | > 1000 nM | > 1000 nM | N[C@@H](CC(=O)N1C2CCC(C2)[C@H]1c1noc(-c2ccccc2)n1)Cc1cc(F)c(F)cc1F (stereo partly drawn) [3a, (3R)-3-Amino-1-[(3S)-3-(5-phenyl-1,2,4-oxadiazol-3-yl)-2-azabicyclo [2.2.1]heptan-2-yl]-4-(2,4,5-trifluorophenyl)butan-1-one] |  |  |  |  | 
4.3 nM | > 1000 nM | > 1000 nM | N[C@@H](CC(=O)N1C2CCC(C2)[C@H]1c1nc(-c2ccccc2)no1)Cc1cc(F)c(F)cc1F (stereo partly drawn) [9a, (3R)-3-Amino-1-[(3S)-3-(3-phenyl-1,2,4-oxadiazol-5-yl)-2-azabicyclo[2.2.1]heptan-2-yl]-4-(2,4,5-trifluorophenyl)butan-1-one] | did not mediate any substantial inhibition | did not mediate any substantial inhibition |  |  | 
 |  |  | N#CC1C2CCC(C2)N1C(=O)CC(N)Cc1cc(F)c(F)cc1F (centres unmarked) [Neogliptin, neogliptin] |  |  | > 1000 nM | 16.8 nM | > 1000 nM
> 1000 nM | > 1000 nM | > 1000 nM | N[C@@H](CC(=O)N1C2CCC(C2)[C@@H]1c1nc(-c2ccccc2)no1)Cc1cc(F)c(F)cc1F (stereo partly drawn) [9b, (3R)-3-Amino-1-[(3R)-3-(3-phenyl-1,2,4-oxadiazol-5-yl)-2-azabicyclo[2.2.1]heptan-2-yl]-4-(2,4,5-trifluorophenyl)butan-1-one] |  |  |  |  | 
